Data as given in the CheMixHub ionic liquid set.

Assay: xn = mol fraction of the nth substance listed

CCCCCCCCCCCCCCCC[n+]1ccccc1.O=C([O-])c1ccccc1O + NCC(=O)NCC(=O)O + O
electrical conductivity [S/m], 101 kPa
Settings	293.15 K	298.15 K	303.15 K	308.15 K	313.15 K
x2 = 0.0009002, x1 = 3.6e-07	0.0016	0.0019	0.00224	0.00265	0.00314
x2 = 0.0009002, x1 = 7.2e-07	0.00178	0.0021	0.00248	0.0029	0.00341
x2 = 0.0009002, x1 = 1.09e-06	0.00197	0.00232	0.00272	0.00318	0.00371
x2 = 0.0009002, x1 = 1.27e-06	0.00204	0.00241	0.00282	0.00329	0.00384
x2 = 0.0009002, x1 = 1.63e-06	0.00215	0.00253	0.00296	0.00345	0.00402
x2 = 0.0009002, x1 = 1.99e-06	0.00228	0.00269	0.00318	0.00366	0.00426
x2 = 0.0009002, x1 = 2.36e-06	0.00242	0.00285	0.00336	0.00389	0.00452
x2 = 0.0009002, x1 = 2.72e-06	0.00254	0.00298	0.0035	–	0.00473
x2 = 0.0009002, x1 = 3.08e-06	0.00261	0.00307	0.0036	0.00419	0.00487
x2 = 0.0009002, x1 = 3.44e-06	0.00272	0.00319	0.00373	0.00434	0.00504
x2 = 0.0009002, x1 = 3.81e-06	0.00285	0.00334	0.00389	0.00452	0.00524
x2 = 0.0009002, x1 = 4.35e-06	0.00298	0.00348	0.00404	0.00468	0.00543
x2 = 0.0009002, x1 = 4.71e-06	0.00311	0.00362	0.00422	0.00487	0.00562
x2 = 0.0009002, x1 = 5.26e-06	0.00322	0.00374	0.00435	0.00501	0.00579
x2 = 0.0009002, x1 = 5.62e-06	0.00334	–	0.0045	0.00518	0.00595
x2 = 0.001799, x1 = 1.8e-07	0.00253	0.00303	0.00363	0.00434	0.00519
x2 = 0.001799, x1 = 3.6e-07	0.0026	0.00311	0.00371	0.00444	0.00529
x2 = 0.001799, x1 = 5.5e-07	0.00269	0.00321	0.00382	0.00456	–
x2 = 0.001799, x1 = 7.3e-07	0.00282	0.00336	0.00389	0.00475	0.00563
x2 = 0.001799, x1 = 9.1e-07	0.00291	0.00345	0.0041	0.00487	0.00576
x2 = 0.001799, x1 = 1.28e-06	0.00301	0.00357	0.00422	0.00501	0.00592
x2 = 0.001799, x1 = 1.46e-06	0.00313	0.0037	0.00438	0.00519	0.00613
x2 = 0.001799, x1 = 1.82e-06	0.00325	0.00384	0.00454	0.00537	0.00632
x2 = 0.001799, x1 = 2.19e-06	0.00335	0.00397	0.00469	0.00555	0.00653
x2 = 0.001799, x1 = 2.55e-06	0.00347	0.0041	0.00484	0.00572	0.00673
x2 = 0.001799, x1 = 2.92e-06	0.00355	0.00419	0.00495	0.00584	0.00688
x2 = 0.001799, x1 = 3.1e-06	–	–	–	–	0.00701
x2 = 0.001799, x1 = 3.46e-06	0.00371	0.00437	0.00515	0.00607	0.00715
x2 = 0.001799, x1 = 3.83e-06	0.00379	0.00447	0.00526	0.00619	0.00728
x2 = 0.001799, x1 = 4.01e-06	–	–	–	–	0.00738

CCCC[N+]1(C)CCCC1.O=S(=O)([N-]S(=O)(=O)C(F)(F)F)C(F)(F)F + O=C1CCCO1
100 kPa
Settings	electrical conductivity [S/m]	viscosity [mPa·s]
303.15 K, x2 = 0.2019	0.461	36.7
308.15 K, x2 = 0.1075	0.459	39.2
308.15 K, x2 = 0.3004	0.638	23.93
308.15 K, x2 = 0.9498	1.31	–
313.15 K, x2 = 0.7009	1.67	5.75
313.15 K, x2 = 0.9498	1.41	–
318.15 K, x2 = 0.2019	0.705	22.28
318.15 K, x2 = 0.8509	2.23	–
318.15 K, x2 = 0.9498	1.5	–
323.15 K, x2 = 0.3004	0.905	15.24
323.15 K, x2 = 0.5999	1.57	6.44
323.15 K, x2 = 0.7009	1.98	4.7
323.15 K, x2 = 0.9498	1.6	–

CCCC[n+]1ccn(C)c1.N[C@@H](CCC(=O)O)C(=O)[O-] + CO
101 kPa
Settings	viscosity [mPa·s]
298.15 K, x2 = 0.2002	46.1
298.15 K, x2 = 0.2995	34.4
298.15 K, x2 = 0.7	4.97
298.15 K, x2 = 0.9	1.24
303.15 K, x2 = 0.6002	9.62
308.15 K, x2 = 0.6002	8.63
308.15 K, x2 = 0.8001	2.83
313.15 K, x2 = 0.2002	25.6
313.15 K, x2 = 0.7	4.55

ClC(Cl)Cl + CCCC[n+]1ccn(C)c1.F[B-](F)(F)F
298.15 K, 101 kPa
Settings	electrical conductivity [S/m]	viscosity [mPa·s]
x1 = 0.1079	0.245	92
x1 = 0.2033	0.29	73
x1 = 0.3071	0.347	55.5
x1 = 0.4018	0.411	40.8
x1 = 0.5052	0.498	27.1
x1 = 0.6091	0.586	16.3
x1 = 0.7028	0.676	9.2
x1 = 0.7825	0.668	5.01
x1 = 0.8491	0.54	2.99

[Cl-].[Li+] + CCCCCCCCn1cc[n+](C)c1.N#C[S-] + CN1CCCC1=O
298.15 K, 101 kPa
Settings	viscosity [mPa·s]
x2 = 0, x1 = 0.03756	2.607
x2 = 0, x1 = 0.07175	3.558
x2 = 0, x1 = 0.1044	4.958

CCOP(=O)([O-])OCC.CC[n+]1ccn(C)c1 + O + CS(C)=O
viscosity [mPa·s], 100 kPa
Settings	293.15 K	303.15 K	313.15 K	323.15 K
x2 = 0.004, x3 = 0.497	–	53	–	–
x2 = 0.005, x3 = 0.768	–	–	9.6	7.1
x2 = 0.008, x3 = 0.886	5.9	–	3.5	2.9

CCCCCCCCCCCCCC[P+](CCCCCC)(CCCCCC)CCCCCC.O=S(=O)([N-]S(=O)(=O)C(F)(F)F)C(F)(F)F + CCC[N+]1(C)CCCC1.O=S(=O)([N-]S(=O)(=O)C(F)(F)F)C(F)(F)F
Settings	electrical conductivity [S/m]
293.15 K, 101 kPa, x1 = 1	0.00719

CCCCCCCCn1cc[n+](C)c1.O=[N+]([O-])[O-] + CCCCCCCCn1cc[n+](C)c1.[Cl-]
Settings	viscosity [mPa·s]
293 K, 101 kPa, x2 = 0.3615	8500

CCCCCCCCCCCCCCCC[n+]1ccccc1.O=C([O-])c1ccccc1O + C[C@H](N)C(=O)O + O
electrical conductivity [S/m], 101 kPa
Settings	293.15 K	298.15 K	303.15 K	308.15 K	313.15 K
x2 = 0.0009002, x1 = 5.4e-07	0.00045	0.00051	0.000575	0.000646	0.000726
x2 = 0.0009002, x1 = 1.09e-06	0.000683	0.000777	0.000872	0.000975	0.00108
x2 = 0.0009002, x1 = 1.63e-06	0.000904	0.00102	0.00114	0.00127	0.00141
x2 = 0.0009002, x1 = 2.17e-06	0.00109	0.00123	0.00139	0.00155	0.00172
x2 = 0.0009002, x1 = 2.53e-06	–	–	–	0.00181	0.002
x2 = 0.0009002, x1 = 2.71e-06	0.00125	0.00144	0.00162	–	–
x2 = 0.0009002, x1 = 3.07e-06	0.00137	0.00158	0.0018	0.00202	0.00228
x2 = 0.0009002, x1 = 3.62e-06	0.00148	0.0017	0.00195	0.00222	0.00249
x2 = 0.0009002, x1 = 3.98e-06	0.00159	0.00182	0.00208	0.00237	0.00267
x2 = 0.0009002, x1 = 4.52e-06	0.0017	0.00194	0.00222	0.00253	0.00286
x2 = 0.0009002, x1 = 4.88e-06	0.00181	0.00206	0.00235	0.00268	0.00303
x2 = 0.0009002, x1 = 5.43e-06	0.00191	0.00218	0.00248	0.00282	0.00319
x2 = 0.0009002, x1 = 5.79e-06	0.002	0.00228	0.0026	0.00295	0.00334
x2 = 0.0009002, x1 = 6.15e-06	0.0021	0.00239	0.00271	0.00308	0.00347
x2 = 0.0009002, x1 = 6.51e-06	0.00217	0.00247	0.0028	0.00318	0.0036
x2 = 0.0009002, x1 = 6.69e-06	0.00224	0.00255	0.00289	0.00327	0.00369
x2 = 0.001799, x1 = 3.6e-07	0.00047	0.000542	0.000625	0.000719	0.000829
x2 = 0.001799, x1 = 5.4e-07	0.000604	0.000697	0.000797	0.000911	0.00103
x2 = 0.001799, x1 = 9.1e-07	0.00073	0.000837	0.000953	0.00108	0.00123
x2 = 0.001799, x1 = 1.27e-06	0.000889	0.00102	0.00115	0.0013	0.00146
x2 = 0.001799, x1 = 1.63e-06	0.00104	0.00119	0.00134	0.00151	0.0017
x2 = 0.001799, x1 = 1.81e-06	0.00112	0.00128	0.00145	0.00163	0.00183
x2 = 0.001799, x1 = 2e-06	0.00121	0.00138	0.00156	0.00175	0.00196
x2 = 0.001799, x1 = 2.18e-06	0.00127	0.00145	0.00165	0.00186	0.00208
x2 = 0.001799, x1 = 2.36e-06	–	–	0.00177	0.00198	0.00222
x2 = 0.001799, x1 = 2.54e-06	0.00134	0.00155	–	–	–
x2 = 0.001799, x1 = 2.72e-06	0.00142	0.00164	0.00188	0.00212	0.0024
x2 = 0.001799, x1 = 3.09e-06	0.00151	0.00174	0.002	0.00229	0.0026
x2 = 0.001799, x1 = 3.63e-06	0.00161	0.00186	0.00213	0.00244	0.00276
x2 = 0.001799, x1 = 3.99e-06	0.00173	0.00198	0.00227	0.0026	0.00296
x2 = 0.001799, x1 = 4.54e-06	0.00183	0.0021	0.0024	0.00275	0.00312
x2 = 0.001799, x1 = 4.9e-06	0.00192	0.0022	0.00251	0.00287	0.00326
